# From article PMC9221290, “Alkaloids of Dicranostigma franchetianum (Papaveraceae) and Berberine Derivatives as a New Class of Antimycobacterial Agents” (Biomolecules, 2022)
# Test system: HepG2 cells
# Test: not given
# Conditions: not given
row,Structure (SMILES),SI (selectivity index)
1,"COc1ccc2cc3[n+](cc2c1OCc1ccc(Cl)cc1)CCc1cc2c(cc1-3)OCO2 [16i, 9-O-(4-chlorbenzyl)berberine chloride]",2.73

# Test system: not listed separately
# Test: in vitro
# Conditions: human, % of cell viability compared to control, 1. measurement, HepG2, 0.1 µM
row,Structure (SMILES),viability at 0.1 µM
1,"COc1ccc2cc3[n+](cc2c1OCc1ccc(Cl)cc1)CCc1cc2c(cc1-3)OCO2 [16i, 9-O-(4-chlorbenzyl)berberine chloride]",96.1%

# Same assay, conditions: human, % of cell viability compared to control, 1. measurement, HepG2, 1 µM
row,Structure (SMILES),viability at 1 µM
1,"COc1ccc2cc3[n+](cc2c1OCc1ccc(Cl)cc1)CCc1cc2c(cc1-3)OCO2 [16i, 9-O-(4-chlorbenzyl)berberine chloride]",101%

# Same assay, conditions: human, % of cell viability compared to control, 1. measurement, HepG2, 5 µM
row,Structure (SMILES),viability at 5 µM
1,"COc1ccc2cc3[n+](cc2c1OCc1ccc(Cl)cc1)CCc1cc2c(cc1-3)OCO2 [16i, 9-O-(4-chlorbenzyl)berberine chloride]",82.3%

# Same assay, conditions: human, % of cell viability compared to control, 1. measurement, HepG2, 10 µM
row,Structure (SMILES),viability at 10 µM
1,"COc1ccc2cc3[n+](cc2c1OCc1ccc(Cl)cc1)CCc1cc2c(cc1-3)OCO2 [16i, 9-O-(4-chlorbenzyl)berberine chloride]",55.3%

# Same assay, conditions: human, % of cell viability compared to control, 1. measurement, HepG2, 20 µM
row,Structure (SMILES),viability at 20 µM
1,"COc1ccc2cc3[n+](cc2c1OCc1ccc(Cl)cc1)CCc1cc2c(cc1-3)OCO2 [16i, 9-O-(4-chlorbenzyl)berberine chloride]",48.5%

# Same assay, conditions: human, % of cell viability compared to control, 1. measurement, HepG2, 30 µM
row,Structure (SMILES),viability at 30 µM
1,"COc1ccc2cc3[n+](cc2c1OCc1ccc(Cl)cc1)CCc1cc2c(cc1-3)OCO2 [16i, 9-O-(4-chlorbenzyl)berberine chloride]",42.3%

# Same assay, conditions: human, % of cell viability compared to control, 1. measurement, HepG2, 40 µM
row,Structure (SMILES),viability at 40 µM
1,"COc1ccc2cc3[n+](cc2c1OCc1ccc(Cl)cc1)CCc1cc2c(cc1-3)OCO2 [16i, 9-O-(4-chlorbenzyl)berberine chloride]",24.7%

# Same assay, conditions: human, % of cell viability compared to control, 1. measurement, HepG2, 50 µM
row,Structure (SMILES),viability at 50 µM
1,"COc1ccc2cc3[n+](cc2c1OCc1ccc(Cl)cc1)CCc1cc2c(cc1-3)OCO2 [16i, 9-O-(4-chlorbenzyl)berberine chloride]",4.45%

# Same assay, conditions: human, % of cell viability compared to control, 2. measurement, HepG2, 0.1 µM
row,Structure (SMILES),viability at 0.1 µM
1,"COc1ccc2cc3[n+](cc2c1OCc1ccc(Cl)cc1)CCc1cc2c(cc1-3)OCO2 [16i, 9-O-(4-chlorbenzyl)berberine chloride]",91.6%

# Same assay, conditions: human, % of cell viability compared to control, 2. measurement, HepG2, 1 µM
row,Structure (SMILES),viability at 1 µM
1,"COc1ccc2cc3[n+](cc2c1OCc1ccc(Cl)cc1)CCc1cc2c(cc1-3)OCO2 [16i, 9-O-(4-chlorbenzyl)berberine chloride]",93.6%

# Same assay, conditions: human, % of cell viability compared to control, 2. measurement, HepG2, 5 µM
row,Structure (SMILES),viability at 5 µM
1,"COc1ccc2cc3[n+](cc2c1OCc1ccc(Cl)cc1)CCc1cc2c(cc1-3)OCO2 [16i, 9-O-(4-chlorbenzyl)berberine chloride]",78%

# Same assay, conditions: human, % of cell viability compared to control, 2. measurement, HepG2, 10 µM
row,Structure (SMILES),viability at 10 µM
1,"COc1ccc2cc3[n+](cc2c1OCc1ccc(Cl)cc1)CCc1cc2c(cc1-3)OCO2 [16i, 9-O-(4-chlorbenzyl)berberine chloride]",56%

# Same assay, conditions: human, % of cell viability compared to control, 2. measurement, HepG2, 20 µM
row,Structure (SMILES),viability at 20 µM
1,"COc1ccc2cc3[n+](cc2c1OCc1ccc(Cl)cc1)CCc1cc2c(cc1-3)OCO2 [16i, 9-O-(4-chlorbenzyl)berberine chloride]",48.4%

# Same assay, conditions: human, % of cell viability compared to control, 2. measurement, HepG2, 30 µM
row,Structure (SMILES),viability at 30 µM
1,"COc1ccc2cc3[n+](cc2c1OCc1ccc(Cl)cc1)CCc1cc2c(cc1-3)OCO2 [16i, 9-O-(4-chlorbenzyl)berberine chloride]",40%

# Same assay, conditions: human, % of cell viability compared to control, 2. measurement, HepG2, 40 µM
row,Structure (SMILES),viability at 40 µM
1,"COc1ccc2cc3[n+](cc2c1OCc1ccc(Cl)cc1)CCc1cc2c(cc1-3)OCO2 [16i, 9-O-(4-chlorbenzyl)berberine chloride]",21.4%

# Same assay, conditions: human, % of cell viability compared to control, 2. measurement, HepG2, 50 µM
row,Structure (SMILES),viability at 50 µM
1,"COc1ccc2cc3[n+](cc2c1OCc1ccc(Cl)cc1)CCc1cc2c(cc1-3)OCO2 [16i, 9-O-(4-chlorbenzyl)berberine chloride]",3.4%

# Same assay, conditions: human, % of cell viability compared to control, 3. measurement, HepG2, 0.1 µM
row,Structure (SMILES),viability at 0.1 µM
1,"COc1ccc2cc3[n+](cc2c1OCc1ccc(Cl)cc1)CCc1cc2c(cc1-3)OCO2 [16i, 9-O-(4-chlorbenzyl)berberine chloride]",98.2%

# Same assay, conditions: human, % of cell viability compared to control, 3. measurement, HepG2, 1 µM
row,Structure (SMILES),viability at 1 µM
1,"COc1ccc2cc3[n+](cc2c1OCc1ccc(Cl)cc1)CCc1cc2c(cc1-3)OCO2 [16i, 9-O-(4-chlorbenzyl)berberine chloride]",100%

# Same assay, conditions: human, % of cell viability compared to control, 3. measurement, HepG2, 5 µM
row,Structure (SMILES),viability at 5 µM
1,"COc1ccc2cc3[n+](cc2c1OCc1ccc(Cl)cc1)CCc1cc2c(cc1-3)OCO2 [16i, 9-O-(4-chlorbenzyl)berberine chloride]",82.3%

# Same assay, conditions: human, % of cell viability compared to control, 3. measurement, HepG2, 10 µM
row,Structure (SMILES),viability at 10 µM
1,"COc1ccc2cc3[n+](cc2c1OCc1ccc(Cl)cc1)CCc1cc2c(cc1-3)OCO2 [16i, 9-O-(4-chlorbenzyl)berberine chloride]",61.1%

# Same assay, conditions: human, % of cell viability compared to control, 3. measurement, HepG2, 20 µM
row,Structure (SMILES),viability at 20 µM
1,"COc1ccc2cc3[n+](cc2c1OCc1ccc(Cl)cc1)CCc1cc2c(cc1-3)OCO2 [16i, 9-O-(4-chlorbenzyl)berberine chloride]",54.6%

# Same assay, conditions: human, % of cell viability compared to control, 3. measurement, HepG2, 30 µM
row,Structure (SMILES),viability at 30 µM
1,"COc1ccc2cc3[n+](cc2c1OCc1ccc(Cl)cc1)CCc1cc2c(cc1-3)OCO2 [16i, 9-O-(4-chlorbenzyl)berberine chloride]",45%

# Same assay, conditions: human, % of cell viability compared to control, 3. measurement, HepG2, 40 µM
row,Structure (SMILES),viability at 40 µM
1,"COc1ccc2cc3[n+](cc2c1OCc1ccc(Cl)cc1)CCc1cc2c(cc1-3)OCO2 [16i, 9-O-(4-chlorbenzyl)berberine chloride]",25.8%

# Same assay, conditions: human, % of cell viability compared to control, 3. measurement, HepG2, 50 µM
row,Structure (SMILES),viability at 50 µM
1,"COc1ccc2cc3[n+](cc2c1OCc1ccc(Cl)cc1)CCc1cc2c(cc1-3)OCO2 [16i, 9-O-(4-chlorbenzyl)berberine chloride]",2.8%

# Test system: Mycobacterium kansasii DSM 44162 (ATCC 12478)
# Test: Antimycobacterial microdilution broth assay (resazurin), M. kansasii
# Format: cell-based
# Conditions: Mycobacterium kansasii, 96 h, read-out: MIC M. kansasii, microdilution broth, resazurin, 96 h
row,Structure (SMILES),MIC
1,"COc1ccc2cc3[n+](cc2c1OCc1ccc(Cl)cc1)CCc1cc2c(cc1-3)OCO2 [16i, 9-O-(4-chlorbenzyl)berberine chloride]",6.25 µg/mL

# Test system: Mtb H37Ra ITM-M006710 (ATCC 9431)
# Test: Antimycobacterial microdilution broth assay (resazurin), Mtb H37Ra
# Format: cell-based, Mycobacterium tuberculosis
# Conditions: Mycobacterium tuberculosis, 120 h, microdilution broth, resazurin, 120 h; read-out: MIC Mtb H37Ra
row,Structure (SMILES),MIC
1,"COc1ccc2cc3[n+](cc2c1OCc1ccc(Cl)cc1)CCc1cc2c(cc1-3)OCO2 [16i, 9-O-(4-chlorbenzyl)berberine chloride]",3.12 µg/mL

# Same assay, conditions: Mycobacterium tuberculosis, calculated from MIC (µg/mL) and MW; read-out: MIC Mtb H37Ra
row,Structure (SMILES),MIC
1,"COc1ccc2cc3[n+](cc2c1OCc1ccc(Cl)cc1)CCc1cc2c(cc1-3)OCO2 [16i, 9-O-(4-chlorbenzyl)berberine chloride]",5.93 µM

# Test system: Mycolicibacterium aurum DSM 43999 (ATCC 23366)
# Test: Antimycobacterial microdilution broth assay (resazurin), M. aurum
# Format: cell-based
# Conditions: Mycolicibacterium aurum, 72 h, read-out: MIC M. aurum, microdilution broth, resazurin, 72 h
row,Structure (SMILES),MIC
1,"COc1ccc2cc3[n+](cc2c1OCc1ccc(Cl)cc1)CCc1cc2c(cc1-3)OCO2 [16i, 9-O-(4-chlorbenzyl)berberine chloride]",3.12 µg/mL

# Test system: Mycobacterium avium DSM 44156 (ATCC 25291)
# Test: Antimycobacterial microdilution broth assay (resazurin), M. avium
# Format: cell-based
# Conditions: Mycobacterium avium, 96 h, read-out: MIC M. avium, microdilution broth, resazurin, 96 h
row,Structure (SMILES),MIC
1,"COc1ccc2cc3[n+](cc2c1OCc1ccc(Cl)cc1)CCc1cc2c(cc1-3)OCO2 [16i, 9-O-(4-chlorbenzyl)berberine chloride]",1.56 µg/mL

# Test system: Mycolicibacterium smegmatis DSM 43465 (ATCC 607)
# Test: Antimycobacterial microdilution broth assay (resazurin), M. smegmatis
# Format: cell-based
# Conditions: Mycolicibacterium smegmatis, 48 h, read-out: MIC M. smegmatis, microdilution broth, resazurin, 48 h
row,Structure (SMILES),MIC
1,"COc1ccc2cc3[n+](cc2c1OCc1ccc(Cl)cc1)CCc1cc2c(cc1-3)OCO2 [16i, 9-O-(4-chlorbenzyl)berberine chloride]",1.56 µg/mL

# Test system: HepG2 cells
# Test: cells
# Conditions: Homo sapiens, HepG2, 24 h, read-out: HepG2 IC50, 1. measurement, MTT, 24 h, single measurement 1
row,Structure (SMILES),IC50
1,"COc1ccc2cc3[n+](cc2c1OCc1ccc(Cl)cc1)CCc1cc2c(cc1-3)OCO2 [16i, 9-O-(4-chlorbenzyl)berberine chloride]",15.9 µM

# Same assay, conditions: Homo sapiens, HepG2, 24 h, read-out: HepG2 IC50, 2. measurement, MTT, 24 h, single measurement 2
row,Structure (SMILES),IC50
1,"COc1ccc2cc3[n+](cc2c1OCc1ccc(Cl)cc1)CCc1cc2c(cc1-3)OCO2 [16i, 9-O-(4-chlorbenzyl)berberine chloride]",14.7 µM

# Same assay, conditions: Homo sapiens, HepG2, 24 h, read-out: HepG2 IC50, 3. measurement, MTT, 24 h, single measurement 3
row,Structure (SMILES),IC50
1,"COc1ccc2cc3[n+](cc2c1OCc1ccc(Cl)cc1)CCc1cc2c(cc1-3)OCO2 [16i, 9-O-(4-chlorbenzyl)berberine chloride]",18 µM

# Same assay, conditions: Homo sapiens, HepG2, 24 h, read-out: HepG2 IC50, MTT, 24 h incubation
row,Structure (SMILES),IC50
1,"COc1ccc2cc3[n+](cc2c1OCc1ccc(Cl)cc1)CCc1cc2c(cc1-3)OCO2 [16i, 9-O-(4-chlorbenzyl)berberine chloride]",16.2 ± 1.67 µM
